# Values of other authors in patent publication US11351146B2, “Topical compositions for the treatment of cutaneous leishmaniasis” (AC BIOSCIENCE SA, priority 2017, dated 2022).
# Experiments:
# intracellular amastigote = conditions: versus glucantime
# [1] = system: L. mexicana, L. infantum and L. major promastigotes
compound,measurement,setting,value
"CCOC(=O)c1cccc(NC(=O)CCl)c1 [MF 29, 3-(2-chloroacetamido) ethyl benzoate]",fold more active than glucantime,intracellular amastigote,400 fold
same,effect on promastigotes strains,"[1]; L. mexicana, L. infantum and L. major promastigotes",high effect
same,fold more active than glucantime,"[1]; promastigote, versus glucantime",400 fold
